# Where “and” joins values, the source holds several entries; their conditions need not be identical. Identical values can stand only once.
# Experiments:
# [1] = test system: embryonic stages of S. digitata; test: Mitochondrial depolarization, mitoscreen JC-1 staining; format: cell-based, Setaria digitata; details: for GMI (Geometric Mean Intensity) of Fluorescence, Mitoscreen-jc-1 staining (Mitochondrial Depolarisation assay): 24 hr, depolarisation = reduction in GMI; for induction of mitochondrial depolarization (result in words): Mfs and eggs, mitoscreen JC-1 staining
# Protocol: Adult female filarial worms Setaria digitata were collected from the peritoneum of cattle, slaughtered at a nearby abattoir in sterile Hanks Balanced Salt Solution (HBSS) medium (Sigma H 2387-1L) and transported to the laboratory in a sterile container. The medium containing 1% glucose (Sigma G 7528), Penicillin 100 units/ml, Streptomycin 100 μg/ml (Sigma P 4333). And Amphotericin-B 0.25 μg/ml (Sigma A 2942) was buffered with NaHCO3 (Sigma S 5761). About 5 to 7 worms were taken in a petridish, washed three times in medium, dissected into small pieces in 10 ml of medium under sterile conditions and incubated at 37° C. for 30 minutes to allow the release of embryonic stages (eggs and microfilariae) into the medium. The embryonic stages were harvested into sterile 15 ml. centrifuge tubes and washed three times by centrifuging at 300 g for 10 minutes each with medium and the final pellet was suspended in 1 ml. of RPMI-1640 medium (Sigma R 8005) supplemented with 10% FBS (Sigma F 2442)
# The number of embryonic stages of S. digitata in the above preparation were counted using light microscope, and the suspension was taken in RPMI-1640 medium containing 10% FBS at 1×10^5 embryonic stages/ml. One ml. each was dispensed into individual wells of a 24 well tissue culture plate. One set of wells was taken as untreated control containing only medium with 10% FBS. […] Motility of the Mf was scored under an inverted microscope.
# After appropriate treatment and incubation, each set of the cultured embryonic stages of S. digitata were harvested from the 24 well tissue culture plate separately in 15 ml. sterile centrifuge tubes, washed with PBS twice and stained as per requirement following manufacturer's instructions as described below. This was followed by two times washing with PBS and final suspension of the stained embryonic stages was taken in 0.5 ml of sheath fluid (BD Biosciences 342003) before their acquisition in the flow cytometer (BD FACS Calibur, Becten and Dickinson, USA). Analysis was performed on 10,000-acquired events depicted as Dot Plots and Histogram Plots using Cellquest Pro soft ware. All plots were representative of at least 3 experiments. The distinctly clustered populations obtained consistently in the Dot plots for the intra uterine embryonic stages of S. digitata (FIG. 1 a) were gated for Mfs (R-1) and eggs (R-2 and R-3) and analyzed for different assays for apoptosis as described below.
# The mitochondrial membrane potential (ΔΨm) was measured using JC-1 probe (a cataionic lipophilic fluorochrome that accumulates in mitochondria in proportion to mitochondrial membrane potential) supplied in mitoscreen JC-1 kit (BD Biosciences 551302). Briefly a suspension of in-vitro cultured embryonic stages at 1×10^5 embryonic stages/ml. was mixed with 0.5 ml of freshly prepared JC-1 working solution for 10-15 minutes at 37° C. in a CO2 incubator followed by two times washing and final suspension of the embryonic stages in 1× assay buffer (supplied with the kit) before acquisition and analysis by flow cytometry. Reduction of fluorescence intensity of the mitoscreen JC-1 stained embryonic stages was taken as the degree of depolarization of mitochondria.
# [2] = test system: embryonic stages of S. digitata; test: Externalization of phosphatidyl serine, Annexin-V-PE staining, flow cytometry; format: cell-based, Setaria digitata; details: for GMI (Geometric Mean Intensity) of Fluorescence, Annexin-V-PE Staining: 24 hr; for externalization of Phosphatidyl serine (result in words): Microfilariae and eggs, Annexin-V-PE staining
# Protocol: Adult female filarial worms Setaria digitata were collected from the peritoneum of cattle, slaughtered at a nearby abattoir in sterile Hanks Balanced Salt Solution (HBSS) medium (Sigma H 2387-1L) and transported to the laboratory in a sterile container. The medium containing 1% glucose (Sigma G 7528), Penicillin 100 units/ml, Streptomycin 100 μg/ml (Sigma P 4333). And Amphotericin-B 0.25 μg/ml (Sigma A 2942) was buffered with NaHCO3 (Sigma S 5761). About 5 to 7 worms were taken in a petridish, washed three times in medium, dissected into small pieces in 10 ml of medium under sterile conditions and incubated at 37° C. for 30 minutes to allow the release of embryonic stages (eggs and microfilariae) into the medium. The embryonic stages were harvested into sterile 15 ml. centrifuge tubes and washed three times by centrifuging at 300 g for 10 minutes each with medium and the final pellet was suspended in 1 ml. of RPMI-1640 medium (Sigma R 8005) supplemented with 10% FBS (Sigma F 2442) The number of embryonic stages of S. digitata in the above preparation were counted using light microscope, and the suspension was taken in RPMI-1640 medium containing 10% FBS at 1×10^5 embryonic stages/ml. One ml. each was dispensed into individual wells of a 24 well tissue culture plate. One set of wells was taken as untreated control containing only medium with 10% FBS. […] Motility of the Mf was scored under an inverted microscope. After appropriate treatment and incubation, each set of the cultured embryonic stages of S. digitata were harvested from the 24 well tissue culture plate separately in 15 ml. sterile centrifuge tubes, washed with PBS twice and stained as per requirement following manufacturer's instructions as described below. This was followed by two times washing with PBS and final suspension of the stained embryonic stages was taken in 0.5 ml of sheath fluid (BD Biosciences 342003) before their acquisition in the flow cytometer (BD FACS Calibur, Becten and Dickinson, USA). Analysis was performed on 10,000-acquired events depicted as Dot Plots and Histogram Plots using Cellquest Pro soft ware. All plots were representative of at least 3 experiments. The distinctly clustered populations obtained consistently in the Dot plots for the intra uterine embryonic stages of S. digitata (FIG. 1 a) were gated for Mfs (R-1) and eggs (R-2 and R-3) and analyzed for different assays for apoptosis as described below. The externalization of phosphatidyl serine was detected by staining the embryonic stages with Annexin-V-PE (BD Biosciences 556421) as per the instructions of the manufacturer. Briefly, the embryonic stages of S. digitata were subjected to various treatments in culture for 24 hrs. After the said period of incubation the embryonic stages were harvested, washed with ice cold PBS twice and resuspended in 100 μl of 1× Annexin-V binding buffer (BD Biosciences 556454) at 1×10^5 embryonic stages per ml. to which 5 μl of Annexin-V-PE was added. After 15 minutes of Incubation in dark at room temperature another 400 μl of 1× Annexin-V binding buffer was added to the above suspension. The resulting 500 μl suspension of Annexin-V-PE stained embryonic stages was then acquired and analyzed by flow cytometer.
SMILES,"GMI (Geometric Mean Intensity) of Fluorescence, Mitoscreen-jc-1 staining (Mitochondrial Depolarisation assay) ([1]; Eggs, 10 μM)",induction of mitochondrial depolarization (result in words) [1],"GMI (Geometric Mean Intensity) of Fluorescence, Mitoscreen-jc-1 staining (Mitochondrial Depolarisation assay) ([1]; Microfilariae, 10 μM)","GMI (Geometric Mean Intensity) of Fluorescence, Annexin-V-PE Staining ([2]; Eggs, 10 μM)",externalization of Phosphatidyl serine (result in words) [2],"GMI (Geometric Mean Intensity) of Fluorescence, Annexin-V-PE Staining ([2]; Microfilariae, 10 μM)","GMI (Geometric Mean Intensity) of Fluorescence, Mitoscreen-jc-1 staining (Mitochondrial Depolarisation assay) ([1]; Eggs, 1 μM)","GMI (Geometric Mean Intensity) of Fluorescence, Mitoscreen-jc-1 staining (Mitochondrial Depolarisation assay) ([1]; Microfilariae, 1 μM)","GMI (Geometric Mean Intensity) of Fluorescence, Annexin-V-PE Staining ([2]; Eggs, 1 μM)","GMI (Geometric Mean Intensity) of Fluorescence, Annexin-V-PE Staining ([2]; Microfilariae, 1 μM)"
OO [H2O2],1225.16 and 1165.12 and 1295.39,dose dependent induction of mitochondrial depolarization was observed,785.33 and 823.57 and 750.62,30.95 and 33.55 and 35.75,dose dependent externalization of Phosphatidyl serine was observed,9.75 and 11.02 and 10.35,,,,
CC1=CC(=O)c2c(O)cccc2C1=O [Plumbagin],970.16 and 1078.76 and 897.56,dose dependent induction of mitochondrial depolarization was observed,435.26 and 476.20 and 398.76,81.25 and 85.22 and 89.36,dose dependent externalization of Phosphatidyl serine was observed,11.95 and 12.52 and 13.56,,,,
CN[C@@H]1C[C@H]2O[C@@](C)([C@@H]1OC)n1c3ccccc3c3c4c(c5c6ccccc6n2c5c31)C(=O)NC4 [Staurosporine],,,,,did not mediate such effects on Phosphatidyl serine externalization,,1549.35 and 1500.65 and 1510.50,895.30 and 979.20 and 930.16,27.59 and 28.53 and 30.63,7.24 and 8.03 and 8.52

# Reference: US20110124523A1, “High Throughput Method for Detecting Apoptosis of Embryonic Stages of Metazoan Helminthic Parasites” (INSTITUTE OF LIFE SCIENCES, priority 2009, published 2011)
